Blank lines part the entries; values can stand above or below the molecule they belong to.
Test system: 475296-252-R-J1-PDC spheroid viability
Test: Anticancer human tumor 475296-252-R-J1-PDC patient-derived rectal carcinoma cell line growth inhibition [PI3K]
Conditions: spheroids with HUVEC and MSC; for IC50: curve of first compound; for viability, T/C: stronger effect = lower value
Method in brief: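 Viability of mixed-cell spheroids was determined after exposure to pairwise combinations, one partner being inavolisib, alpelisib, duvelisib or copanlisib. Highest tested concentration matched clinical Cmax where known and 10 microM where not, descending in half-log steps.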

[1] = second compound 0.00316 µM, first compound 0.0316 µM
[2] = second compound 0.00316 µM, first compound 0.1 µM
[3] = second compound 0.00316 µM, first compound 0.316 µM
[4] = second compound 0.00316 µM, first compound 1 µM
[5] = second compound 0.00316 µM, first compound 3.16 µM
[6] = second compound 0.00316 µM, first compound 10 µM
[7] = second compound 0.01 µM, first compound 0.0316 µM
[8] = second compound 0.01 µM, first compound 0.1 µM
[9] = second compound 0.01 µM, first compound 0.316 µM
[10] = second compound 0.01 µM, first compound 1 µM
[11] = second compound 0.01 µM, first compound 3.16 µM
[12] = second compound 0.01 µM, first compound 10 µM
[13] = second compound 0.0316 µM, first compound 0.0316 µM
[14] = second compound 0.0316 µM, first compound 0.1 µM
[15] = second compound 0.0316 µM, first compound 0.316 µM
[16] = second compound 0.0316 µM, first compound 1 µM
[17] = second compound 0.0316 µM, first compound 3.16 µM
[18] = second compound 0.0316 µM, first compound 10 µM
[19] = second compound 0.1 µM, first compound 0.0316 µM
[20] = second compound 0.1 µM, first compound 0.1 µM
[21] = second compound 0.1 µM, first compound 0.316 µM
[22] = second compound 0.1 µM, first compound 1 µM
[23] = second compound 0.1 µM, first compound 3.16 µM
[24] = second compound 0.1 µM, first compound 10 µM
[25] = second compound 0.316 µM, first compound 0.0316 µM
[26] = second compound 0.316 µM, first compound 0.1 µM
[27] = second compound 0.316 µM, first compound 0.316 µM
[28] = second compound 0.316 µM, first compound 1 µM
[29] = second compound 0.316 µM, first compound 3.16 µM
[30] = second compound 0.316 µM, first compound 10 µM
[31] = second compound 1 µM, first compound 0.0316 µM
[32] = second compound 1 µM, first compound 0.1 µM
[33] = second compound 1 µM, first compound 0.316 µM
[34] = second compound 1 µM, first compound 1 µM
[35] = second compound 1 µM, first compound 3.16 µM
[36] = second compound 1 µM, first compound 10 µM
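Note: spheroids exposed to agents for seven days before readout.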

IC50 (second compound 0.00316 µM): > 10000 nM
IC50 (second compound 0.01 µM): > 10000 nM
IC50 (second compound 0.0316 µM): > 10000 nM
IC50 (second compound 0.1 µM): > 10000 nM
IC50 (second compound 0.316 µM): > 10000 nM
IC50 (second compound 1 µM): 6180 nM
SMILES: CC(C)NCC(C(=O)N1CCN(c2ncnc3c2C(C)CC3O)CC1)c1ccc(Cl)cc1 (stereo not drawn) + COc1c(OCCCN2CCOCC2)ccc2c3n(c(=NC(=O)c4cnc(N)nc4)nc12)CCN3
viability, T/C [1]: 98.5%
viability, T/C [2]: 94.5%
viability, T/C [3]: 94.1%
viability, T/C [4]: 92.2%
viability, T/C [5]: 67.2%
viability, T/C [6]: 55.1%
viability, T/C [7]: 106%
viability, T/C [8]: 99%
viability, T/C [9]: 96.5%
viability, T/C [10]: 84.7%
viability, T/C [11]: 65.6%
viability, T/C [12]: 60%
viability, T/C [13]: 108%
viability, T/C [14]: 102%
viability, T/C [15]: 87.2%
viability, T/C [16]: 79.5%
viability, T/C [17]: 77%
viability, T/C [18]: 78.2%
viability, T/C [19]: 92.8%
viability, T/C [20]: 77.9%
viability, T/C [21]: 87.6%
viability, T/C [22]: 72.1%
viability, T/C [23]: 75.2%
viability, T/C [24]: 62%
viability, T/C [25]: 68.6%
viability, T/C [26]: 75%
viability, T/C [27]: 70.2%
viability, T/C [28]: 71.4%
viability, T/C [29]: 62.7%
viability, T/C [30]: 59.7%
viability, T/C [31]: 60.4%
viability, T/C [32]: 56%
viability, T/C [33]: 67%
viability, T/C [34]: 63.5%
viability, T/C [35]: 55.8%
viability, T/C [36]: 38.2%

IC50 (second compound 0.00316 µM): > 1000 nM
IC50 (second compound 0.01 µM): > 1000 nM
IC50 (second compound 0.0316 µM): > 1000 nM
IC50 (second compound 0.1 µM): > 1000 nM
IC50 (second compound 0.316 µM): > 1000 nM
IC50 (second compound 1 µM): > 1000 nM
SMILES: CCN1CCN(Cc2ccc(Nc3ncc(F)c(-c4cc(F)c5nc(C)n(C(C)C)c5c4)n3)nc2)CC1 + COc1c(OCCCN2CCOCC2)ccc2c3n(c(=NC(=O)c4cnc(N)nc4)nc12)CCN3
viability, T/C (second compound 0.00316 µM, first compound 0.00316 µM): 99.3%
viability, T/C (second compound 0.00316 µM, first compound 0.01 µM): 102%
viability, T/C [1]: 97.5%
viability, T/C [2]: 104%
viability, T/C [3]: 100%
viability, T/C [4]: 90.6%
viability, T/C (second compound 0.01 µM, first compound 0.00316 µM): 95.6%
viability, T/C (second compound 0.01 µM, first compound 0.01 µM): 95%
viability, T/C [7]: 93.1%
viability, T/C [8]: 95.2%
viability, T/C [9]: 104%
viability, T/C [10]: 76.4%
viability, T/C (second compound 0.0316 µM, first compound 0.00316 µM): 83.8%
viability, T/C (second compound 0.0316 µM, first compound 0.01 µM): 92.5%
viability, T/C [13]: 99.2%
viability, T/C [14]: 95.1%
viability, T/C [15]: 86.9%
viability, T/C [16]: 64.4%
viability, T/C (second compound 0.1 µM, first compound 0.00316 µM): 86.3%
viability, T/C (second compound 0.1 µM, first compound 0.01 µM): 94.4%
viability, T/C [19]: 84.8%
viability, T/C [20]: 87.2%
viability, T/C [21]: 85.9%
viability, T/C [22]: 63.8%
viability, T/C (second compound 0.316 µM, first compound 0.00316 µM): 74.3%
viability, T/C (second compound 0.316 µM, first compound 0.01 µM): 78.4%
viability, T/C [25]: 72.5%
viability, T/C [26]: 65.3%
viability, T/C [27]: 63%
viability, T/C [28]: 50%
viability, T/C (second compound 1 µM, first compound 0.00316 µM): 62.8%
viability, T/C (second compound 1 µM, first compound 0.01 µM): 58.2%
viability, T/C [31]: 63.6%
viability, T/C [32]: 55.8%
viability, T/C [33]: 56%
viability, T/C [34]: 55.2%

IC50 (second compound 0.00316 µM): > 10000 nM
IC50 (second compound 0.01 µM): > 10000 nM
IC50 (second compound 0.0316 µM): 2090 nM
IC50 (second compound 0.1 µM): 2920 nM
IC50 (second compound 0.316 µM): 1360 nM
IC50 (second compound 1 µM): 888 nM
SMILES: Cn1ncc(Cl)c1-c1cc(C(=O)NC(CN)Cc2cccc(F)c2)sc1Cl (stereo not drawn) + COc1c(OCCCN2CCOCC2)ccc2c3n(c(=NC(=O)c4cnc(N)nc4)nc12)CCN3
viability, T/C [1]: 86.5%
viability, T/C [2]: 70.6%
viability, T/C [3]: 80.1%
viability, T/C [4]: 67.9%
viability, T/C [5]: 66.1%
viability, T/C [6]: 55.7%
viability, T/C [7]: 93.4%
viability, T/C [8]: 91.5%
viability, T/C [9]: 62.1%
viability, T/C [10]: 58.5%
viability, T/C [11]: 59.4%
viability, T/C [12]: 59.2%
viability, T/C [13]: 82.9%
viability, T/C [14]: 89.4%
viability, T/C [15]: 90.4%
viability, T/C [16]: 59%
viability, T/C [17]: 53%
viability, T/C [18]: 36.9%
viability, T/C [19]: 80%
viability, T/C [20]: 79.4%
viability, T/C [21]: 72.6%
viability, T/C [22]: 56.4%
viability, T/C [23]: 54.3%
viability, T/C [24]: 27.1%
viability, T/C [25]: 69.2%
viability, T/C [26]: 69.4%
viability, T/C [27]: 62.1%
viability, T/C [28]: 54%
viability, T/C [29]: 39.5%
viability, T/C [30]: 22.5%
viability, T/C [31]: 61.4%
viability, T/C [32]: 53.8%
viability, T/C [33]: 67.8%
viability, T/C [34]: 42.4%
viability, T/C [35]: 36.1%
viability, T/C [36]: 16.4%

IC50 (second compound 0.00316 µM): > 10000 nM
IC50 (second compound 0.01 µM): > 10000 nM
IC50 (second compound 0.0316 µM): 2780 nM
IC50 (second compound 0.1 µM): 1020 nM
IC50 (second compound 0.316 µM): 612 nM
IC50 (second compound 1 µM): 129 nM
SMILES: Cn1nccc1Nc1nccc(-c2ccn(C(CO)c3ccc(Cl)c(F)c3)c(=O)c2)n1 (stereo not drawn) + COc1c(OCCCN2CCOCC2)ccc2c3n(c(=NC(=O)c4cnc(N)nc4)nc12)CCN3
viability, T/C [1]: 88.1%
viability, T/C [2]: 107%
viability, T/C [3]: 95.3%
viability, T/C [4]: 94.8%
viability, T/C [5]: 77.2%
viability, T/C [6]: 58.3%
viability, T/C [7]: 88.5%
viability, T/C [8]: 88.2%
viability, T/C [9]: 88.4%
viability, T/C [10]: 85.7%
viability, T/C [11]: 70.6%
viability, T/C [12]: 50.5%
viability, T/C [13]: 92.5%
viability, T/C [14]: 89.7%
viability, T/C [15]: 80.2%
viability, T/C [16]: 84.6%
viability, T/C [17]: 45.6%
viability, T/C [18]: 42.7%
viability, T/C [19]: 78%
viability, T/C [20]: 81%
viability, T/C [21]: 64.3%
viability, T/C [22]: 53.6%
viability, T/C [23]: 24%
viability, T/C [24]: 8.76%
viability, T/C [25]: 74.7%
viability, T/C [26]: 78.5%
viability, T/C [27]: 58.8%
viability, T/C [28]: 43.8%
viability, T/C [29]: 7.08%
viability, T/C [30]: 3.11%
viability, T/C [31]: 54.9%
viability, T/C [32]: 51.5%
viability, T/C [33]: 42.6%
viability, T/C [34]: 29.2%
viability, T/C [35]: 10%
viability, T/C [36]: 5.49%

From PubChem BioAssay AID1963980 (Molecular Pharmacology Branch, DTP, NCI, 2024)
